The record followed here is patent US20220324835A1 (Nurix Therapeutics, Inc., priority 2018, published 2022).

Like-named read-outs stand apart in the source and are kept apart here.

Assay type in all cases: cell-based
One assay has as its system primary human B cells. Kind of assay: B cell activation assay (CD69 on anti-IgM stimulated B cells). Particulars: AUC of dose response curve (10 μM to 1 nM) of CD69 MFI normalized to DMSO control. Here is the method:
Peripheral blood mononuclear cells (PBMC) were obtained either: 1) by using Ficoll-Paque™ (GE Healthcare) for separation of peripheral blood hematopoietic cells from buffy coats of healthy human donors; or 2) directly from LeukoPak donations. Human primary B cells were isolated from the PBMCs utilizing negative selection with commercial kits following the manufacturer's protocol (StemCells Catalog #17954) to yield >95% CD20+ cells assessed by flow cytometry. Primary human B cells were plated at 0.7-1×10^5 per well in a 96-well plate with Cbl-b inhibitors over a dose ranging from 10 μM to 1 nM and incubated at 37° C. 5% CO2, with a final DMSO concentration of <0.5%. Cells were stimulated with anti-IgM for 20 hours at 37° C. 5% CO2. Surface activation markers on mature CD20^+ IgD^+ B cells were monitored by FACS using an anti-CD69 antibody (BD Biosciences).
Cbl-b inhibitors were tested to determine their ability to induce or enhance surface expression of cell surface markers on B cells (e.g., CD69), which is indicative of B cell activation.
Readouts were reported as area under curve (AUC) of the dose response curve of CD69 mean fluorescence intensity (MFI) normalized to the DMSO control. Baseline for this study was the measurement obtained from primary human B cells treated with DMSO in the presence of 2.5 μg/mL of anti-IgM-F(ab′)2. […] Compounds were ranked into bins according to their readouts as follows: A indicates ≤0.5, B indicates 0.5-1.00, C indicates 1.01-1.50, and D indicates ≥1.51.

A further assay deals with primary human NK cells. The experiment in a line: NK cell activation assessed by cytokine secretion (coculture with K562 NucRed target cells). Particulars: for fold induction at 0.625 µM: 0.625 μM compound; for fold induction at 2.5 µM: 2.5 μM compound. Here is the method:
Peripheral blood mononuclear cells (PBMC) were obtained either: 1) by using Ficoll-Paque™ (GE Healthcare) for separation of peripheral blood hematopoietic cells from buffy coats of healthy human donors; or 2) directly from LeukoPak donations. […] The cells were cultured overnight with IL-2 (60 ng/mL) at 37° C. 5% CO2. Cbl-b inhibitors were added 1 hour prior to stimulation and incubated at 37° C. 5% CO2 at a specific concentration (e.g., 10 μM, 1 μM, or 0.1 μM) with a final DMSO concentration of <0.1%. NK cells were co-cultured with target cells that were engineered to have a red nucleus (K562 NucRed) measurable by flow cytometry. […] The cells were mixed at the indicated ratios (e.g., 5:1, 1:1, or 1:5) of NK (effector cells) to K562 NucRed (target cells) for 6 hours. Cell free supernatants were collected and analyzed for cytokine secretion (e.g. TNFα, IFNγ, or MIP1β) by ELISA or Luminex multiplex kits following the manufacturer's protocol. IFNγ secretion was assessed using an R&D Systems ELISA kit (Catalog #DY285), TNFα secretion was assessed using an R&D Systems ELISA kit (Catalog #DY210), and MIP1β secretion was assessed using an R&D Systems ELISA kit (Catalog #DY271).
Readouts were reported as fold change over baseline. Baseline for this study was the measurement obtained from primary human NK effector cells cocultured with K562 NucRed target cells in the absence of a Cbl-b inhibitor. For NK cells cocultured with K562 NucRed cells, changes greater than 2.0-fold over baseline for cytokine secretion were considered a positive response (Table 10a and 10b).

In assay [1] the test system is human T-cells with allogenic immature dendritic cells. Kind of assay: Allogenic mixed lymphocyte reaction (MLR), T-cell proliferation. Particulars: 120 h, 5 days, baseline T-cells without Cbl-b inhibitor, read-out: Proliferation, fold change over baseline. The method, then:
Cbl-b inhibitor effects on primary human T-cells were also evaluated in the context of an allogenic mixed lymphocyte reaction (MLR). Allogenic immature dendritic cells were generated under the following conditions. Peripheral blood mononuclear cells (PBMC) were obtained either: 1) by using Ficoll-Paque™ (GE Healthcare) for separation of peripheral blood hematopoietic cells from huffy coats of healthy human donors; or 2) directly from LeukoPak donations. […] Monocytes were cultured with 30 ng/mL of recombinant human GM-CSF and 20 ng/mL of recombinant human IL-4 for seven days to generate immature dendritic cells. Monocytes and T-cells were either isolated fresh from peripheral blood or thawed from frozen stocks. Human T-cells were isolated, labeled with CFSE and incubated with inhibitors as described above. […] Proliferation of the T-cells was evaluated by flow cytometry.
Readouts for the allogenic mixed lymphocyte reaction were reported as fold change over baseline. Baseline for this study was the measurement obtained from total human T-cells stimulated with allogenic immature dendritic cells, wherein the T-cells were not incubated with a Cbl-b inhibitor (Table 5). Increases in proliferation greater than 2-fold over baseline were considered a positive response (Table 5).

Where [2] appears, read: K562, NK cells cocultured with K562 NucRed, 1:1 E/T, read-out: IFNγ secretion, fold change over baseline.
[3] abbreviates: K562, NK cells cocultured with K562 NucRed, 1:1 E/T, read-out: TNFα secretion, fold change over baseline.
Setting [4] is: K562, NK cells cocultured with K562 NucRed, 1:1 E/T, 10 μM compound, read-out: IFNγ secretion, fold change over baseline.
[5] abbreviates: K562, NK cells cocultured with K562 NucRed, 1:1 E/T, 10 μM compound, read-out: TNFα secretion, fold change over baseline.

Take `C[C@H](Cc1nncn1C)c1cccc(N2Cc3c(cccc3C(F)(F)F)C2=O)c1` [Compound 255a, (R)-2-(3-(1-(4-methyl-4H-1,2,4-triazol-3-yl)propan-2-yl)phenyl)-4-(trifluoromethyl)isoindolin-1-one]: the “CD69 MFI AUC” value with primary human B cells is on record as “C (C indicates 1.01-1.50)”. The fold induction at 1 µM in the assay on primary human NK cells (K562, 1:1 E/T, read-out: IFNγ secretion) is 1.01 to 2; in the assay on primary human NK cells (K562, 1:1 E/T, read-out: MIP1β secretion), below 1; in the assay with primary human NK cells (K562, 1:1 E/T, read-out: TNFα secretion), below 1; with primary human NK cells (K562, 5:1 E/T, read-out: IFNγ secretion), 1.01 to 2; in the assay on primary human NK cells (K562, 5:1 E/T, read-out: MIP1β secretion), below 1; with primary human NK cells (K562, 5:1 E/T, read-out: TNFα secretion), below 1. Also, the fold induction at 10 µM with primary human NK cells (K562, 1:1 E/T, 10 μM, read-out: IFNγ secretion) is 2.01 to 5; in the assay with primary human NK cells (K562, 1:1 E/T, 10 μM, read-out: MIP1β secretion), 1.01 to 2; in the assay with primary human NK cells (K562, 1:1 E/T, 10 μM, read-out: TNFα secretion) it was below 1; in the assay on primary human NK cells (K562, 5:1 E/T, 10 μM, read-out: IFNγ secretion), above 5; with primary human NK cells (K562, 5:1 E/T, 10 μM, read-out: MIP1β secretion), 1.01 to 2; with primary human NK cells (K562, 5:1 E/T, 10 μM, read-out: TNFα secretion) it was below 1. In addition, the fold induction at 10 µM is 2.01 to 5 with primary human NK cells (setting [4]), 2.01 to 5 in the assay on primary human NK cells (setting [5]) and below 2 in assay [1]. The fold induction at 0.625 µM with primary human NK cells (setting [2]) and with primary human NK cells (setting [3]) was 1.01 to 2 in each case. The fold induction at 2.5 µM in the assay on primary human NK cells (setting [2]) and in the assay with primary human NK cells (setting [3]) was 1.01 to 2 each time. Further, in assay [1], the fold induction at 3 µM was below 2.

As to `C[C@H](Cc1nncn1C)c1cccc(NC(=O)c2n[nH]c3c2CCC3)c1` [Compound 313, (R)-N-(3-(1-(4-Methyl-4H-1,2,4-triazol-3-yl)propan-2-yl)phenyl)-1,4,5,6-tetrahydrocyclopenta[c]pyrazole-3-carboxamide], in the assay with primary human B cells, the “CD69 MFI AUC” value is listed as “B (B indicates 0.5-1.00)”. For the same molecule, the figures for the fold induction at 0.625 µM in the assay on primary human NK cells (setting [2]) and with primary human NK cells (setting [3]) were below 1 and 1.01 to 2, respectively. Further, the fold induction at 2.5 µM in the assay with primary human NK cells (setting [2]) and in the assay on primary human NK cells (setting [3]) was 1.01 to 2 throughout. For the same molecule, the figures for the fold induction at 10 µM (in the assay on primary human NK cells (setting [4]); in the assay on primary human NK cells (setting [5]); in assay [1]) were 2.01 to 5, 1.01 to 2 and below 2, respectively. Besides, in assay [1], the fold induction at 3 µM was below 2.

For `Cc1cc(C(=O)Nc2cccc([C@@H](C)Cc3nncn3C)c2)nc(C2CC2)n1` [Compound 325, (S)-2-Cyclopropyl-6-methyl-N-(3-(1-(4-methyl-4H-1,2,4-triazol-3-yl)propan-2-yl)phenyl)pyrimidine-4-carboxamide], the “CD69 MFI AUC” value in the assay on primary human B cells is “C (C indicates 1.01-1.50)”. Besides, the fold induction at 0.625 µM in the assay with primary human NK cells (setting [2]) is 1.01 to 2; with primary human NK cells (setting [3]), below 1. The fold induction at 2.5 µM is 1.01 to 2 in the assay on primary human NK cells (setting [2]) and below 1 in the assay on primary human NK cells (setting [3]). Further, the fold induction at 10 µM with primary human NK cells (setting [4]) is 2.01 to 5; in the assay with primary human NK cells (setting [5]), 1.01 to 2; in assay [1] it was below 2. Also, in assay [1], the fold induction at 3 µM was below 2.

Consider `Cn1cnnc1CC1(c2cccc(NC(=O)c3nc4c(C(F)(F)F)cccc4[nH]3)c2)COC1` [Compound 335, N-(3-{3-[(4-methyl-1,2,4-triazol-3-yl)methyl]oxetan-3-yl}phenyl)-4-(trifluoromethyl)-1H-1,3-benzodiazole-2-carboxamide], for which, in the assay with primary human B cells, the “CD69 MFI AUC” value was “B (B indicates 0.5-1.00)”. Further, the fold induction at 0.625 µM in the assay on primary human NK cells (setting [2]) and in the assay with primary human NK cells (setting [3]) was 1.01 to 2 throughout. Also, the results for the fold induction at 2.5 µM in the assay with primary human NK cells (setting [2]) and in the assay with primary human NK cells (setting [3]) were 2.01 to 5 and 1.01 to 2, respectively. For the same molecule, the values for the fold induction at 10 µM (in the assay on primary human NK cells (setting [4]); with primary human NK cells (setting [5]); in assay [1]) were 2.01 to 5, 2.01 to 5 and below 2, respectively. For the same molecule, the fold induction at 3 µM in assay [1] is below 2.

For the molecule `Cc1cc(C(=O)Nc2cccc(C3(Cc4nncn4C)COC3)c2)nc(C2CC2)n1` [Compound 336, 2-cyclopropyl-6-methyl-N-(3-(3-((4-methyl-4H-1,2,4-triazol-3-yl)methyl)oxetan-3-yl)phenyl)pyrimidine-4-carboxamide], the “CD69 MFI AUC” value with primary human B cells is “D (D indicates ≥1.51)”. In addition, the results for the fold induction at 0.625 µM in the assay with primary human NK cells (setting [2]) and in the assay with primary human NK cells (setting [3]) were 2.01 to 5 and 1.01 to 2, respectively. Besides, the fold induction at 2.5 µM is above 5 in the assay on primary human NK cells (setting [2]) and 2.01 to 5 in the assay with primary human NK cells (setting [3]). In addition, the fold induction at 10 µM was above 5 in the assay with primary human NK cells (setting [4]), 2.01 to 5 in the assay on primary human NK cells (setting [5]) and above 3.01 in assay [1]. The fold induction at 3 µM in assay [1] was below 2.

Turning to `Cc1n[nH]c(C)c1-c1cc2c(c(C(F)(F)F)c1)CN(c1cccc(C3(Cc4nncn4C)COC3)c1)C2=O` [Compound 385, 6-(3,5-dimethyl-1H-pyrazol-4-yl)-2-(3-{3-[(4-methyl-4H-1,2,4-triazol-3-yl)methyl]oxetan-3-yl}phenyl)-4-(trifluoromethyl)-2,3-dihydro-1H-isoindol-1-one], the “CD69 MFI AUC” value with primary human B cells is “C (C indicates 1.01-1.50)”. In addition, the fold induction at 0.625 µM with primary human NK cells (setting [2]) is 1.01 to 2; in the assay on primary human NK cells (setting [3]), below 1. Besides, the values for the fold induction at 2.5 µM in the assay on primary human NK cells (setting [2]) and in the assay on primary human NK cells (setting [3]) were 2.01 to 5 and 1.01 to 2, respectively. For the same molecule, the fold induction at 10 µM was 2.01 to 5 with primary human NK cells (setting [4]), 1.01 to 2 with primary human NK cells (setting [5]) and below 2 in assay [1]. In addition, in assay [1], the fold induction at 3 µM is below 2.

In the case of `C[C@H](Cc1nncn1C)c1cccc(N2Cc3c(cc(CN4CC(O)C4)cc3C(F)(F)F)C2=O)c1` [Compound 393, (R)-6-((3-hydroxyazetidin-1-yl)methyl)-2-(3-(1-(4-methyl-4H-1,2,4-triazol-3-yl)propan-2-yl)phenyl)-4-(trifluoromethyl)isoindolin-1-one], the “CD69 MFI AUC” value in the assay with primary human B cells is “B (B indicates 0.5-1.00)”. For the same molecule, the fold induction at 0.625 µM with primary human NK cells (setting [2]) and with primary human NK cells (setting [3]) was 1.01 to 2 in each case. Also, the fold induction at 2.5 µM in the assay with primary human NK cells (setting [2]) and with primary human NK cells (setting [3]) was 2.01 to 5 each time. For the same molecule, the values for the fold induction at 10 µM (in the assay with primary human NK cells (setting [4]); in the assay on primary human NK cells (setting [5]); in assay [1]) were 2.01 to 5, 2.01 to 5 and 2.01 to 3, respectively. Besides, in assay [1], the fold induction at 3 µM was below 2.
